Test results: US12545659B2, “IRAK degraders and uses thereof” (Kymera Therapeutics, Inc., priority 2019, dated 2026)

Target: T1, IRAK4 (Homo sapiens, UniProt Q9NWZ3)
T1 construct: endogenous in cells; host or cells: OCI-LY10
T1 sequence (Q9NWZ3 1-460): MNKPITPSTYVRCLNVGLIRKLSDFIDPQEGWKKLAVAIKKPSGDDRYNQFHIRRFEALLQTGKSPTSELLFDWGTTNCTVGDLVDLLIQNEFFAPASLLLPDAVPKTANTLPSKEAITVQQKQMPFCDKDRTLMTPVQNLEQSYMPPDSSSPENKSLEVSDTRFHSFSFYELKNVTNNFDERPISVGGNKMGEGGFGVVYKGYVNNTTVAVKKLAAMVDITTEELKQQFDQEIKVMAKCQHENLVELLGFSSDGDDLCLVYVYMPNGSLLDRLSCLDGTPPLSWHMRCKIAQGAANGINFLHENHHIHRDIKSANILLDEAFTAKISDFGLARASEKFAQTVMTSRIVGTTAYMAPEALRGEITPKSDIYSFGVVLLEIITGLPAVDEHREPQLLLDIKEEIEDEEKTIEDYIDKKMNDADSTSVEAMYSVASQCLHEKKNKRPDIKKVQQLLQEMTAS
Assay: IRAK4 MSD Degradation in OCI-LY10
Type: cell-based
Conditions: OCI-LY10 cells, 4 hrs incubation, read-out: IRAK4 degradation in OCI-LY10 at 4 hrs: DC50
In short: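 OCI-LY10 cells treated with 8-dose, 1:3 dilution series (top final 1 to 10 μM) for 4 to 24 h at 37 °C, 5% CO2. Lysate IRAK4 quantified by MSD sandwich immunoassay (mouse 2H9 capture, rabbit Y279 detection, SULFO-TAG anti-rabbit); DC50 from three-parameter logistic fit.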

DC50 [nM] | Molecule
< 50 | Cn1c(=O)n(C2CCC(=O)NC2=O)c2cccc(CN3CCC(OC4CCN(C[C@H]5CC[C@H](n6cc7cc(NC(=O)c8cccc(C(F)(F)F)n8)c(C(C)(C)O)cc7n6)CC5)CC4)CC3)c21 (stereo partly drawn) [I-66]
50 to 100 | Cn1c(=O)n(C2CCC(=O)NC2=O)c2cccc(CCC3CC4(CCN(C[C@H]5CC[C@H](n6cc7cc(NC(=O)c8cccc(OC(F)(F)F)n8)c(C(C)(C)O)cc7n6)CC5)CC4)C3)c21 (stereo partly drawn) [I-204]
< 50 | Cn1c(=O)n(C2CCC(=O)NC2=O)c2cccc(CCN3CC4(CCN(C(=O)[C@H]5CC[C@H](n6cc7cc(NC(=O)c8cccc(C(F)(F)F)n8)c(C(C)(C)O)cc7n6)CC5)CC4)C3)c21 (stereo partly drawn) [I-239]
50 to 100 | Cn1c(=O)n(C2CCC(=O)NC2=O)c2cccc(CCCC3CCN(C[C@H]4CC[C@H](n5cc6cc(NC(=O)c7cccc(C(F)(F)F)n7)c(N7CCOCC7)cc6n5)CC4)CC3)c21 (stereo partly drawn) [I-135]
50 to 100 | COc1cc2nn([C@H]3CC[C@H](CN(C)[C@H]4CC[C@]5(CC4)C[C@@H](Cc4cccc6c4n(C)c(=O)n6C4CCC(=O)NC4=O)C5)CC3)cc2cc1NC(=O)c1cccc(C(F)(F)F)n1 (stereo partly drawn) [I-160]
< 50 | Cn1c(=O)n(C2CCC(=O)NC2=O)c2cccc(C3CCN(C[C@H]4CC[C@H](n5cc6cc(NC(=O)c7cccc(C(F)(F)F)n7)c(C(C)(C)O)cc6n5)CC4)CC3)c21 (stereo partly drawn) [I-226]
< 50 | Cn1c(=O)n(C2CCC(=O)NC2=O)c2cccc(CCOC3CCN(C[C@H]4CC[C@H](n5cc6cc(NC(=O)c7cccc(C(F)(F)F)n7)c(C(C)(C)O)cc6n5)CC4)CC3)c21 (stereo partly drawn) [I-267]
< 50 | Cn1c(=O)n(C2CCC(=O)NC2=O)c2cccc(CC3CC4(CCN(C[C@H]5CC[C@H](n6cc7cc(NC(=O)c8cccc(C(F)(F)F)n8)c(C(C)(C)O)cc7n6)CC5)CC4)C3)c21 (stereo partly drawn) [I-56]
50 to 100 | Cn1c(=O)n(C2CCC(=O)NC2=O)c2cccc(N3[C@@H]4CC[C@H]3CN(C[C@H]3CC[C@H](n5cc6cc(NC(=O)c7cccc(C(F)(F)F)n7)c(C(C)(C)O)cc6n5)CC3)C4)c21 (stereo partly drawn) [I-285]

Second part, the molecule before the results:

Molecule | DC50 [nM]
COc1cc2nn([C@H]3CC[C@H](CN(C)C4CCN(c5cccc6c5n(C)c(=O)n6C5CCC(=O)NC5=O)CC4)CC3)cc2cc1NC(=O)c1cccc(C(F)(F)F)n1 (stereo partly drawn) [I-247, N-[2-[4-[[[1-[1-(2,6-dioxo-3-piperidyl)-3-methyl-2-oxo-benzimidazol-4-yl]-4-piperidyl]-methyl-amino]methyl]cyclohexyl]-6-methoxy-indazol-5-yl]-6-(trifluoromethyl)pyridine-2-carboxamide] | < 50
COc1cc2nn([C@H]3CC[C@H](CNc4cccc5c4n(C)c(=O)n5C4CCC(=O)NC4=O)CC3)cc2cc1NC(=O)c1cccc(C(F)(F)F)n1 (stereo partly drawn) [I-150] | 500 to 1000
COc1cc2nn([C@H]3CC[C@H](CN4CC(c5cccc6c5n(C)c(=O)n6C5CCC(=O)NC5=O)C4)CC3)cc2cc1NC(=O)c1cccc(C(F)(F)F)n1 (stereo partly drawn) [I-111] | 50 to 100
COc1cc2nn([C@H]3CC[C@H](CN4CCC(c5cccc6c5n(C)c(=O)n6C5CCC(=O)NC5=O)CC4)CC3)cc2cc1NC(=O)c1ccncn1 (stereo partly drawn) [I-324] | < 50
Cn1c(=O)n(C2CCC(=O)NC2=O)c2cccc(N3CCN(C[C@H]4CC[C@H](n5cc6cc(NC(=O)c7cccc(C(F)(F)F)n7)c(OC(F)(F)F)cc6n5)CC4)CC3)c21 (stereo partly drawn) [I-169] | 50 to 100
Cn1c(=O)n(C2CCC(=O)NC2=O)c2cccc(C#CCC3CCN(C[C@H]4CC[C@H](n5cc6cc(NC(=O)c7cccc(C(F)(F)F)n7)c(C(F)F)cc6n5)CC4)CC3)c21 (stereo partly drawn) [I-95] | 50 to 100
Cn1c(=O)n(C2CCC(=O)NC2=O)c2cccc(CCC3CC4(CCN(C[C@H]5CC[C@H](n6cc7cc(NC(=O)c8cnn9cccnc89)c(C(F)F)cc7n6)CC5)CC4)C3)c21 (stereo partly drawn) [I-299] | < 50
CN(C[C@H]1CC[C@H](n2cc3cc(NC(=O)c4cccc(C(F)(F)F)n4)c(C(C)(C)O)cc3n2)CC1)C1CCN(Cc2ccc3c(c2)C(=O)N(C)C3C2CCC(=O)NC2=O)CC1 (stereo partly drawn) [I-279] | < 50
CN(C[C@H]1CC[C@H](n2cc3cc(NC(=O)c4cnn5cccnc45)c(N4CCOCC4)cc3n2)CC1)C1CCN(Cc2cccc3c2n(C)c(=O)n3C2CCC(=O)NC2=O)CC1 (stereo partly drawn) [I-116] | < 50

Same assay, conditions: OCI-LY10 cells, 24 hrs incubation, read-out: IRAK4 degradation in OCI-LY10 at 24 hrs: DC50

Molecule | DC50 [nM]
COc1cc2nn([C@H]3CC[C@H](CN4CC5(CC(CCNc6cccc7c6C(=O)N([C@@H]6CCC(=O)NC6=O)C7=O)C5)C4)CC3)cc2cc1NC(=O)c1cccc(C(C)(F)F)n1 [I-254, 6-(1,1-Difluoroethyl)-N-[2-[4-[[6-[2-[[2-[(3R)-2,6-dioxo-3-piperidyl]-1,3-dioxo-isoindolin-4-yl]amino]ethyl]-2-azaspiro[3.3]heptan-2-yl]methyl]cyclohexyl]-6-methoxy-indazol-5-yl]pyridine-2-carboxamide] | < 50
COc1cc2nn([C@H]3CC[C@H](CN4CCC5(CC4)CC(CCNc4cccc6c4C(=O)N(C4CCC(=O)NC4=O)C6=O)C5)CC3)cc2cc1NC(=O)c1cccc(C(C)(C)F)n1 (stereo partly drawn) [I-92] | 50 to 100
O=C1CCC(N2C(=O)c3cccc(NCCC4CC5(CCN(C[C@H]6CC[C@H](n7cc8cc(NC(=O)c9cccc(C(F)(F)F)n9)c(OC(F)(F)F)cc8n7)CC6)CC5)C4)c3C2=O)C(=O)N1 (stereo partly drawn) [I-141] | 50 to 100
CN(C[C@H]1CC[C@H](n2cc3cc(NC(=O)c4cccc(C(F)(F)F)n4)c(C(C)(C)O)cc3n2)CC1)[C@H]1CC[C@]2(CC1)C[C@H](Nc1cccc3c1C(=O)N(C1CCC(=O)NC1=O)C3=O)C2 (stereo partly drawn) [I-124] | < 50
COc1c(NC(=O)c2cccc(C(C)(C)F)n2)cc2cn([C@H]3CC[C@H](CN4CC5(CC(CCNc6cccc7c6C(=O)N(C6CCC(=O)NC6=O)C7=O)C5)C4)CC3)nc2c1C (stereo partly drawn) [I-315] | 50 to 100
COc1cc2nn([C@H]3CC[C@H](CN(C)[C@H]4CC[C@H](CNc5cccc6c5C(=O)N(C5CCC(=O)NC5=O)C6=O)CC4)CC3)cc2cc1NC(=O)c1cccc(C)n1 (stereo partly drawn) [I-268] | 50 to 100
CC(C)(O)c1cc2nn([C@H]3CC[C@H](CN4CCC5(CC4)CC(CNc4cccc6c4C(=O)N(C4CCC(=O)NC4=O)C6=O)C5)CC3)cc2cc1NC(=O)c1cccc(C(C)(C)F)n1 (stereo partly drawn) [I-251] | 50 to 100
Cn1c2cc(NC(=O)c3cccc(C(F)(F)F)n3)c(C(C)(C)O)cc2nc1[C@H]1CC[C@H](CN2CC3(CC(CCNc4cccc5c4C(=O)N(C4CCC(=O)NC4=O)C5=O)C3)C2)CC1 (stereo partly drawn) [I-287] | 50 to 100
O=C1CCC(N2C(=O)c3cccc(NCCCOCC4CCN(C[C@H]5CC[C@H](n6cc7cc(NC(=O)c8cccc(C(F)(F)F)n8)c(C(F)F)cc7n6)CC5)CC4)c3C2=O)C(=O)N1 (stereo partly drawn) [I-33] | 50 to 100
COc1cc2nn([C@H]3CC[C@H](CN4CCC5(CC4)CC(CCNc4cccc6c4C(=O)N(C4CCC(=O)NC4=O)C6=O)C5)CC3)cc2cc1NC(=O)c1cccc(C(C)(F)F)n1 (single isomer, unassigned) [I-128] | 50 to 100
CC(C)(O)c1cc2nn([C@H]3CC[C@H](CN4CCO[C@@H](CCNc5cccc6c5C(=O)N(C5CCC(=O)NC5=O)C6=O)C4)CC3)cc2cc1NC(=O)c1cccc(C(F)(F)F)n1 (stereo partly drawn) [I-65] | < 50

Tested on: OCI-LY10 cells
Assay: CTG Cell Viability Assay - OCI-LY10
Type: cell-based
Conditions: Homo sapiens, 96 h; OCI-LY10 cells, 4 days, CellTiter-Glo; read-out: CTG Cell Viability Assay - OCI-LY10: IC50
Description: Compound-mediated viability effect on OCI-LY10 or SUDHL-2 was quantitatively determined using the CellTiter-Glo® Luminescent Cell Viability Assay kit from Promega (Catalog number G7570) following manufacturer's recommended procedures. Briefly, OCI-LY10 or SUDHL-2 cells were seeded into 384 well plates (Grenier Bio-One, Catalog number 781080) with a density of 10,000 cells per well. Compounds were then added to the assay plate with final top concentration of 10 M and 1:3 dilution series with total of 9 doses. The final DMSO concentration was normalized to 0.2%. The assay plates were incubated at 37° C. for 4 days under 5% CO2. Then the assay plate was equilibrated at room temperature for 10 minutes. To determine cell viability, L CellTiter Glo reagent was added to each well and the assay plate was centrifuged at 1000 rpm for 30 second, incubated at room temperature for 10 min, and analyzed by detecting the luminescence using a multimode plate reader (EnVision 2105, PerkinElmer). The data was then analyzed by software Prism 7.0 from GraphPad and the dose response curves were fit using a three-parameter logistic equation to calculate IC50.

Molecule | IC50 [nM]
COc1cc2nn([C@H]3CC[C@H](CN(C)C4CCN(c5cccc6c5n(C)c(=O)n6C5CCC(=O)NC5=O)CC4)CC3)cc2cc1NC(=O)c1cccc(C(F)(F)F)n1 (stereo partly drawn) [I-247, N-[2-[4-[[[1-[1-(2,6-dioxo-3-piperidyl)-3-methyl-2-oxo-benzimidazol-4-yl]-4-piperidyl]-methyl-amino]methyl]cyclohexyl]-6-methoxy-indazol-5-yl]-6-(trifluoromethyl)pyridine-2-carboxamide] | > 1000

Tested on: not given
Assay: not given
Conditions: cn_pd bond; 13-membered ring; Pd2(dba)3/Xantphos/Cs2CO3; dioxane; 18.1 mM; 80.0 °C

Molecule | ring closure, isolated yield [%]
12-((1R,4R)-4-(hydroxymethyl)cyclohexyl)-12H-5,10-dioxa-2-aza-1(5,6)-indazola-4(2,6)-pyridinacyclodecaphan-3-one | 55

Same assay, conditions: the molecule shown is the open-chain precursor; cn_pd bond; 14-membered ring; BrettPhos Pd G3/Cs2CO3; DMA; 100.0 mM; 90.0 °C

Molecule | ring closure, isolated yield [%]
NC(=O)c1cccc(OCCO[C@H]2CCN(c3cc4nn(C5CCC(CO)CC5)cc4cc3Br)C2)c1 (stereo partly drawn) | 33

Same assay, conditions: the molecule shown is the open-chain precursor; cn_pd bond; 14-membered ring; BrettPhos Pd G4/Cs2CO3; DMA; 9.4 mM; 80.0 °C

Molecule | ring closure, isolated yield [%]
NC(=O)c1cccc(OCCCCCOc2cc3nn(C4CCC(CO)CC4)cc3cc2Br)n1 (stereo not drawn) | 39
